# Measurements reported in patent EP1067137B1, “Granules of alpha-L-aspartyl-L-phenylalnine methyl ester” (Ajinomoto Co., Inc., priority 1991, dated 1992).
# Peptide text beside a SMILES is read from it.
# What was measured:
# [1] = Dissolution time of α-APM granules in water; assay type: physicochemical; settings: 8 g of sample in 2 liters of water, 20 °C, 350 rpm
# Method: The dissolution time of the α-APM granules thus obtained was measured by the method mentioned below, and the results obtained are shown in Table 1.
# First, 2 liters of water were previously put in a 3-liter beaker and stirred with a magnetic stirrer.
# The size of the stirrer to be used for the stirring was 70 mm x 15 mm φ and the rotation number was set to be 350 rpm with Whatman Dataplate 440. The temperature of the water was kept to be 20 ° C by the use of a hot plate. 8 g of a sample was put into the water under the determined condition, whereupon the time needed for completely dissolving it in the water was measured to be the dissolution time of the sample.
# [2] = relative to sucrose (cane sugar); cited from earlier work
# [3] = Original Powder before Granulation
# [4] = granules, Grain Size 100 to 150 µm
# [5] = granules, Grain Size 150 to 180 µm
# [6] = granules, Grain Size 180 to 300 µm
# [7] = granules, Grain Size 300 to 500 µm
# [8] = granules, Grain Size 500 to 850 µm
# [9] = granules, Grain Size 850 to 1400 µm
structure (smiles),measurement,setting,value
"COC(=O)[C@H](Cc1ccccc1)NC(=O)[C@@H](N)CC(=O)O [sample A, α-L-aspartyl-L-phenylalanine methyl ester] (H-Asp-Phe-OMe)",Dissolution Time,[1]; [3],30 min
same,Dissolution Time,[1]; [4],15 min
same,Dissolution Time,[1]; [5],8 min
same,Dissolution Time,[1]; [6],11 min
same,Dissolution Time,[1]; [7],18 min
same,Dissolution Time,[1]; [8],25 min
same,Dissolution Time,[1]; [9],38 min
"COC(=O)[C@H](Cc1ccccc1)NC(=O)[C@@H](N)CC(=O)O [α-APM, α-L-aspartyl-L-phenylalanine methyl ester] (H-Asp-Phe-OMe)",sweetness,[2],about 200 times that of sucrose
"COC(=O)[C@H](Cc1ccccc1)NC(=O)[C@@H](N)CC(=O)O [sample C, α-L-aspartyl-L-phenylalanine methyl ester] (H-Asp-Phe-OMe)",Dissolution Time,[1]; [3],60 min
same,Dissolution Time,[1]; [4],36 min
same,Dissolution Time,[1]; [5],20 min
same,Dissolution Time,[1]; [6],12 min
same,Dissolution Time,[1]; [7],19 min
same,Dissolution Time,[1]; [8],27 min
same,Dissolution Time,[1]; [9],38 min
"COC(=O)[C@H](Cc1ccccc1)NC(=O)[C@@H](N)CC(=O)O [sample B, α-L-aspartyl-L-phenylalanine methyl ester] (H-Asp-Phe-OMe)",Dissolution Time,[1]; [3],15 min
same,Dissolution Time,[1]; [4],10 min
same,Dissolution Time,[1]; [5],7 min
same,Dissolution Time,[1]; [6],9 min
same,Dissolution Time,[1]; [7],17 min
same,Dissolution Time,[1]; [8],24 min
same,Dissolution Time,[1]; [9],35 min
